Tests used:
vesamicol receptor = assay: Blocking experiments: inhibition of radiotracer accumulation in the rat by coadministered compound; type: in vivo, rat (male Wistar); conditions: for effect of coadministered vesamicol on accumulation (in words) / Brain: Blood Ratio / Heart: Blood Ratio / radioactivity in blood / radioactivity in brain / radioactivity in heart / radioactivity in kidney / radioactivity in liver / radioactivity in lung / radioactivity in muscle / radioactivity in spleen: rat; for Brain: Blood Ratio / Heart: Blood Ratio / radioactivity in blood / radioactivity in brain / radioactivity in heart / radioactivity in kidney / radioactivity in liver / radioactivity in lung / radioactivity in muscle / radioactivity in spleen: iv, 60 min
Method: *Animals in group 1 received an iv injection of (+)4-[^125 l]HIPP
only. For groups 2, 3, and 4, the radiotracer was coadministered with the
hydrochlorides of (+)7 (0.53 mg/kg), (-)7 (0.53 mg/kg) and vesamicol (0.3
Four groups of male Wistar rats (n=3) were used in these experiments. All animals received an iv dose of 8-10 μCi of the radiotracer in 0.1 ml of 50% aq. ethanol. Additionally, in groups 2, 3 and 4, the radiotracer was coadministered with (+)-HBrPP.HCl(1.3 μmol/kg), (-)-HBrPP.HCl(1.3 μmol/kg) and (dl)-vesamicol hydrochloride (1.1 μmol/kg), respectively. At 60 min. post-injection, blood was collected by cardiac puncture and the animals sacrificed as described above. The data was analyzed as outlined above.
NOTE: The dose of radiotracer injected was 5-7 mCi. Group I was the
control, injected with the radiotracer only. Group II included the
simultaneous injection of "cold"(dl)3-HIPP (HCl) (0.53 mg/kg). Group III
included the simultaneous injection of (dl) vesamicol (HCl) (0.31 mg/kg).
All rats were sacrificed at one hour postinjection.
NOTE: Group I was the control, injected with the radiotracer only. Group
II included the simultaneous injection of "cold"(dl)3-HIPP (HCl) (0.53
mg/kg). Group III included the simultaneous injection of (dl) vesamicol
hydrochloride (0.31 mg/kg). The dose of radiotracer was 8-9 μCi. All
rats were sacrificed at one hour postinjection.
NOTE: Group I received (+)[^125 l]13 only. Group II received the (+)
radiotracer coinjected with 0.31 mg/kg (dl)vesamicol hydrochloride. Group
III received (-)[^125 l]13 only. Group IV received the (-) radiotrace
coinjected with 0.31 mg/kg (dl)vesamicol hydrochloride. All animals were
sacrificed at one hour postinjection. The dose of radiotracer injected pe

[1] = Tissue distribution (biodistribution) of radioiodinated compound in the rat; conditions: for tissue uptake at 5 min / tissue uptake at 0.5 h / tissue uptake at 1 h / tissue uptake at 3 h / decrease of concentration in the brain / initial accumulation in the rat brain / Brain: Blood Ratio / Heart: Blood Ratio / radioactivity in brain / radioactivity in blood / radioactivity in heart / radioactivity in kidney / radioactivity in liver / radioactivity in lung / radioactivity in muscle / radioactivity in spleen: rat; for tissue uptake at 5 min / tissue uptake at 0.5 h / tissue uptake at 1 h / tissue uptake at 3 h / Brain: Blood Ratio / Heart: Blood Ratio / radioactivity in brain / radioactivity in blood / radioactivity in heart / radioactivity in kidney / radioactivity in liver / radioactivity in lung / radioactivity in muscle / radioactivity in spleen: iv; for tissue uptake at 0.5 h: 30 min
[2] = + (dl)-vesamicol HCl 0.3 (Table 3) or 0.31 mg/kg
[3] = + cold (dl)3-HIPP HCl 0.53 mg/kg

## OC(Cc1ccc(I)cc1)CN1CCC(c2ccccc2)CC1 (racemic) [Compound 5, (dl)-2-Hydroxy-3-(4-iodophenyl)-1-(4-phenylpiperidyl)propane]
Vesamicol receptor; conclusion from blocking and regional distribution in vivo
  vesamicol receptor ligand (in words): potent ligand
Vesamicol receptor
  effect of coadministered vesamicol on accumulation (in words): can be blocked by vesamicol
[1]; rodent (and monkey)
  brain retention (in words): prolonged brain retention

## OC(Cc1ccc([125I])cc1)CN1CCC(c2ccccc2)CC1 (single isomer, unassigned; (+)) [(+)-4-[^125 l]HIPP, 2-Hydroxy-3-(4-iodophenyl)-1-(4-phenylpiperidyl)propane]
[1]; blood, radioactivity in blood, 5 min
  tissue uptake at 5 min: 0.08 %ID/g
[1]; blood, radioactivity in blood
  tissue uptake at 0.5 h: 0.04 %ID/g
[1]; blood, radioactivity in blood, 60 min
  tissue uptake at 1 h: 0.03 %ID/g
[1]; brain, radioactivity in brain, 5 min
  tissue uptake at 5 min: 1.2 %ID/g
[1]; brain, radioactivity in brain
  tissue uptake at 0.5 h: 1.22 %ID/g
[1]; brain, radioactivity in brain, 60 min
  tissue uptake at 1 h: 1.23 %ID/g
[1]; brain, radioactivity in brain, 180 min
  tissue uptake at 3 h: 1.35 %ID/g
[1]; heart, radioactivity in heart, 5 min
  tissue uptake at 5 min: 1.8 %ID/g
[1]; heart, radioactivity in heart
  tissue uptake at 0.5 h: 1.23 %ID/g
[1]; heart, radioactivity in heart, 60 min
  tissue uptake at 1 h: 1.12 %ID/g
[1]; heart, radioactivity in heart, 180 min
  tissue uptake at 3 h: 0.84 %ID/g
[1]; kidney, radioactivity in kidney, 5 min
  tissue uptake at 5 min: 2.84 %ID/g
[1]; kidney, radioactivity in kidney
  tissue uptake at 0.5 h: 2.42 %ID/g
[1]; kidney, radioactivity in kidney, 60 min
  tissue uptake at 1 h: 2.3 %ID/g
[1]; kidney, radioactivity in kidney, 180 min
  tissue uptake at 3 h: 1.81 %ID/g
[1]; liver, radioactivity in liver, 5 min
  tissue uptake at 5 min: 1.58 %ID/g
[1]; liver, radioactivity in liver
  tissue uptake at 0.5 h: 2.55 %ID/g
[1]; liver, radioactivity in liver, 60 min
  tissue uptake at 1 h: 2.43 %ID/g
[1]; liver, radioactivity in liver, 180 min
  tissue uptake at 3 h: 2.38 %ID/g
[1]; lung, radioactivity in lung, 5 min
  tissue uptake at 5 min: 11.5 %ID/g
[1]; lung, radioactivity in lung
  tissue uptake at 0.5 h: 5.59 %ID/g
[1]; lung, radioactivity in lung, 60 min
  tissue uptake at 1 h: 4.75 %ID/g
[1]; lung, radioactivity in lung, 180 min
  tissue uptake at 3 h: 3.74 %ID/g
[1]; muscle, radioactivity in muscle, 5 min
  tissue uptake at 5 min: 0.24 %ID/g
[1]; muscle, radioactivity in muscle
  tissue uptake at 0.5 h: 0.25 %ID/g
[1]; muscle, radioactivity in muscle, 60 min
  tissue uptake at 1 h: 0.19 %ID/g
[1]; muscle, radioactivity in muscle, 180 min
  tissue uptake at 3 h: 0.24 %ID/g
[1]; spleen, radioactivity in spleen, 5 min
  tissue uptake at 5 min: 0.71 %ID/g
[1]; spleen, radioactivity in spleen
  tissue uptake at 0.5 h: 1.28 %ID/g
[1]; spleen, radioactivity in spleen, 60 min
  tissue uptake at 1 h: 1.23 %ID/g
[1]; spleen, radioactivity in spleen, 180 min
  tissue uptake at 3 h: 1.39 %ID/g

## OC(Cc1cccc([125I])c1)CN1CCC(c2ccccc2)CC1 (single isomer, unassigned; (+)) [(+)-[^125 l]12] [2-Hydroxyl-3-(3-iodophenyl)-1-[1-(4-phenylpiperidinyl)]propane]
Vesamicol receptor
  effect of coadministered vesamicol on accumulation (in words): inhibited
Vesamicol receptor; [2]
  Brain: Blood Ratio: 2.14
  Heart: Blood Ratio: 1.10
Vesamicol receptor; [3]
  Brain: Blood Ratio: 1.92
  Heart: Blood Ratio: 1.16
Vesamicol receptor; radiotracer only (control)
  Brain: Blood Ratio: 8.49
  Heart: Blood Ratio: 3.96
[1]; 1 hour post-injection vs initial, listed as (+)-[^125 I]12
  decrease of concentration in the brain: 20%
[1]; 3 hours post-injection vs initial, listed as (+)-[^125 I]12
  decrease of concentration in the brain: 54%
[1]; listed as (+)-[^125 I]12
  initial accumulation in the rat brain: 2.08 % of the injected dose
[1]; 5 min
  Brain: Blood Ratio: 13.1
  Heart: Blood Ratio: 16.4
[1]; 60 min
  Brain: Blood Ratio: 9.2
  Heart: Blood Ratio: 4.2
[1]; 180 min
  Brain: Blood Ratio: 7.2
  Heart: Blood Ratio: 2.1
  radioactivity in brain: 0.56 % dose/g

## OC(Cc1cccc([125I])c1)CN1CCC(c2ccccc2)CC1 (single isomer, unassigned; (-)) [(-)-[^125 l]12] [2-Hydroxyl-3-(3-iodophenyl)-1-[1-(4-phenylpiperidinyl)]propane]
Vesamicol receptor
  effect of coadministered vesamicol on accumulation (in words): inhibited
Vesamicol receptor; [2]
  Brain: Blood Ratio: 1.40
  Heart: Blood Ratio: 0.95
  radioactivity in blood: 0.14 % dose/g of tissue
  radioactivity in brain: 0.20 % dose/g of tissue
  radioactivity in heart: 0.14 % dose/g of tissue
  radioactivity in kidney: 0.46 % dose/g of tissue
  radioactivity in liver: 0.81 % dose/g of tissue
  radioactivity in lung: 0.73 % dose/g of tissue
  radioactivity in muscle: 0.13 % dose/g of tissue
  radioactivity in spleen: 0.50 % dose/g of tissue
Vesamicol receptor; [3]
  radioactivity in blood: 0.13 % dose/g of tissue
  Brain: Blood Ratio: 1.19
  Heart: Blood Ratio: 0.87
  radioactivity in brain: 0.15 % dose/g of tissue
  radioactivity in heart: 0.11 % dose/g of tissue
  radioactivity in kidney: 0.46 % dose/g of tissue
  radioactivity in liver: 0.63 % dose/g of tissue
  radioactivity in lung: 0.57 % dose/g of tissue
  radioactivity in muscle: 0.10 % dose/g of tissue
  radioactivity in spleen: 0.36 % dose/g of tissue
Vesamicol receptor; radiotracer only (control)
  Brain: Blood Ratio: 5.08
  Heart: Blood Ratio: 1.57
  radioactivity in blood: 0.13 % dose/g of tissue
  radioactivity in brain: 0.64 % dose/g of tissue
  radioactivity in heart: 0.20 % dose/g of tissue
  radioactivity in kidney: 0.98 % dose/g of tissue
  radioactivity in liver: 0.86 % dose/g of tissue
  radioactivity in lung: 0.92 % dose/g of tissue
  radioactivity in muscle: 0.15 % dose/g of tissue
  radioactivity in spleen: 0.83 % dose/g of tissue
[1]; 1 hour post-injection vs initial, listed as (-)-[^125 I]12
  decrease of concentration in the brain: 43%
[1]; 3 hours post-injection vs initial, listed as (-)-[^125 I]12
  decrease of concentration in the brain: 74%
[1]; listed as (-)-[^125 I]12
  initial accumulation in the rat brain: 1.86 % of the injected dose
[1]; 5 min
  Brain: Blood Ratio: 9.0
  Heart: Blood Ratio: 11.4
  radioactivity in blood: 0.11 % dose/g
  radioactivity in brain: 0.98 % dose/g
  radioactivity in heart: 1.26 % dose/g
  radioactivity in kidney: 2.46 % dose/g
  radioactivity in liver: 1.41 % dose/g
  radioactivity in lung: 8.94 % dose/g
  radioactivity in muscle: 0.36 % dose/g
  radioactivity in spleen: 0.66 % dose/g
[1]; 60 min
  Brain: Blood Ratio: 5.1
  Heart: Blood Ratio: 1.9
  radioactivity in blood: 0.11 % dose/g
  radioactivity in brain: 0.56 % dose/g
  radioactivity in heart: 0.21 % dose/g
  radioactivity in kidney: 1.00 % dose/g
  radioactivity in liver: 1.04 % dose/g
  radioactivity in lung: 1.04 % dose/g
  radioactivity in muscle: 0.14 % dose/g
  radioactivity in spleen: 0.95 % dose/g
[1]; 180 min
  Brain: Blood Ratio: 2.6
  Heart: Blood Ratio: 0.9
  radioactivity in blood: 0.11 % dose/g
  radioactivity in brain: 0.27 % dose/g
  radioactivity in heart: 0.10 % dose/g
  radioactivity in kidney: 0.59 % dose/g
  radioactivity in liver: 0.79 % dose/g
  radioactivity in lung: 0.46 % dose/g
  radioactivity in muscle: 0.08 % dose/g
  radioactivity in spleen: 0.44 % dose/g
